We go through two substances from patent publication US20240317826A1, “COMPOSITIONS AND METHODS FOR TREATING AND/OR I[…] AGENT FOR TREATING HIV-1 INFECTIONS” (priority 2021, published 2024).

“Also recorded” adds a separate entry of the source. Where two headings read alike, the source gives them in different places.

One test concerns the target T1, IN/INI1 complex (Human immunodeficiency virus type 1 group M subtype B, UniProt P04585).
T1 construct: expressed in transfected cells; host or cells: 293T cells
The test can be described thus: co-IP in 293T cells: HA-INI1 bound to YFP-IN. Type of test: cell-based, HIV-1. An excerpt:
Panels d-g show the input RNA and protein levels within transfected cells: the RT-PCR analysis of input TAR RNA levels (panel d); Immunoblot analysis of input HA-INI1 (panel e); input YFP-IN (panel f); and GAPDH level for loading control (panel g). Lane 1 is RNA-co-IP using isotype IgG control antibodies and lanes 2-7 are RNA-co-IP using anti-GFP antibodies to pull down IN. There is ˜1000 fold inhibition of RNA and INI1 binding to IN in the presence of SP-38 peptide (compare lane 6 to lane 5).
To determine if stapled peptides can inhibit interaction of IN with TAR RNA in cells, we carried out RNA-co-IP experiments (FIG. 8e). YFP-IN and TAR RNA were expressed by co-transfecting plasmids pYFP-fN, pLTIR-luc and pTat in 293T cells. Cells were treated with SP-38 or SP-83 (D225G mutant) peptides. After transfection, the cell lysates were treated with DNaseI and subjected to immunoprecipitation (IP) using α-GFP antibodies to pull down YFP-IN and associated complexes. RNA was separated from the immune complexes and subjected to RT-PCR to detect bound TAR RNA (FIG. 8e, panel a). Immunoblot analysis of bound proteins were carried out using: α-HA to detect bound HA-INI1 (FIG. 8e, panel b) and α-GFP to detect YFP-IN (FIG. 8e, panel c). RT-PCR of the RNA isolated from cell lysate was used as input control (FIG. 8e, panel d). Immunoblot analysis of total proteins from cell lysates as input control were carried out using α-HA to detect input HA-INI1 (FIG. 8e, panel e), α-GFP to detect input YFP-IN (FIG. 8e, panel f), and α-GAPDH to detect GAPDH as loading control (FIG. 8e, panel g). […] Expression of both GFP-IN and TAR RNA in the cells led to successful RNA-co-IP by α-GFP antibodies (FIG. 8e, lane 5).

The test system of another test is HIV-1NL4-3. The test is described as follows: Multiday HIV-1 replication assay in CEM-GFP cells. Type of test: cell-based. Conditions: CEM-GFP cells infected with HIV-1NL4-3; 1 and 5 micromolar peptide; GFP expression and p24 in culture supernatants. The source says: FIG. 9A-FIG. 9C show an inhibition of HIV-1 replication by Stapled peptides in a multiday replication assay in CEM-GFP cells. […] FIG. 9B and FIG. 9C show images representing the expression of GFP in CEM GFP cells in presence or absence of 1 and 5 micromolar Stapled peptides or DMSO control. FIG. 9D and FIG. 9E show p24 ELISA analysis of culture supernatants from CEM-GFP cells from panels FIG. 9B and FIG. 9C samples. The CEM-GFP cells were infected with HIV-1NL4-3 and treated with stapled peptides. Culture supernatants were collected on multiple days as indicated and p24 analysis was carried out.
To determine if the stapled peptides can inhibit HIV-1 replication in cell culture, we used CEM-GFP cell lines, which harbor LTR-GFP as a reporter. HIV-1 infection of these cells activates GFP expression.

The subject of test [1] is reactivated HIV-1 from latent cells (J1.1). The test is described as follows: Co-culture of PMA-reactivated latent J1.1 cells with CEM-GFP cells. Type of test: cell-based. On the set-up: inhibition of infection of CEM-GFP cells by reactivated virus (green cells): dose or concentration left out as unconfirmed. The note with it: J1.1 + CEM-GFP co-culture; for inhibition of infection of CEM-GFP cells by reactivated virus (green cells): PMA, images day 2 postinduction; for inhibition of virus spread, p24 levels in culture: p24 on day 5. The source says: FIG. 13A-FIG. 13C show staple peptides inhibit infection of reactivated HIV-1 from latent cells. […] Cells harboring latent virus (J1.1) were co-cultured with CEM-GFP cells in the presence and absence of stapled peptides. Addition of PMA reactivates HIV-1 from latent cells which infect CEM cells to induce expression of GFP. […] Images were taken on day 2 postinduction. […] Experiments was done in triplicates and the graph represents mean+/−SEM.
As a proof-of-concept to test if the stapled peptides inhibit spreading of the reactivated latent viruses, we used an in vitro cell line model of latency, J1.1 cells. J1.1 have a single latently integrated provirus which is activated using LRAs. We activated the latently integrated provirus by the addition of PMA and then mixed them with CEM-GFP cells in the cultures. Infection of CEM-GFP cells with virus produced from J1.1 upon reactivation turns the CEM-GFP T-cells green (FIGS. 13a and b right side panels). We tested the effect of addition of stapled peptides in this co-culture experiment (FIGS. 13a and b middle and left side panels). […] We furthermore determined the p24 released from the culture supernatant as a measure of the virus production in the presence and absence of stapled peptides (FIG. 13c).

A further test concerns the target T2, IN-INI1 interaction (Human immunodeficiency virus type 1 group M subtype B, UniProt P04585).
T2 construct: made in house; host or cells: bacteria (E. coli inferred from the pGEX vector)
The test can be described thus: Alpha interaction assay: effect of stapled peptides on IN-INI1 interaction. Type of test: binding, HIV-1. Conditions: in vitro. As to the method:
FIG. 8A-FIG. 8D show quantitative alpha interaction assay to determine the effect of stapled peptides on the interaction of IN and IN-CTD with INI1 and INI1183-304 or TAR RNA. […] Fixed concentrations of GST-IN, 6His-INI1, and TAR RNA were incubated with increasing concentration of stapled peptides and the interaction was detected as Alpha Score. The IC50 values were determined by fitting the data to a four-parameter dose-response curve using Graph Pad prism. All the graphs represent the average of three independent experiments (Mean+/−SEM).
AlphaScreen proximity assay to detect the protein-protein and protein-RNA interactions. AlphaScreen assay was carried out using PerkinElmer Alpha-Lisa-6His Acceptor beads (Catalogue #AL128C), Alpha-Screen-GST donor beads (Catalogue #6765300), GST-tagged and His-tagged proteins for protein-protein interactions; and Alpha-Screen Streptavidin donor beads (Catalogue #6760002 S), Alpha-Lisa-GST acceptor beads (Catalogue #AL110C), Biotin-labeled RNA and GST-tagged proteins for protein-RNA interactions. The reaction was carried out according to the manufacturer's protocol in a reaction buffer contacting (25 mM HEPES pH 7.4, 100 mM NaCl (or 500 mM NaCl), 1 mM DTT, 1 mM MgCl2 and BSA 1 mg ml/ml). The mixture of proteins or protein and RNA were incubated for 1 hr at room temperate with shaking in a multi micro-plate shaker and then 20 ag ml/ml accepter beads were added and incubated for additional 1 h with shaking. Finally, 20 ag ml^−1 of donor beads were added and further incubated for 1 hr. The Alpha score readings were measured using Alpha-compatible Envision 2105 multi-plate reader (Perkin-Elmer). All the experiments related to this method were carried out 3 to 5 times and data were analyzed by using Graph Pad Prism 9 version 9.0.0 (GraphPad Software, CA). The RNA sequences used in this assay are listed in the Table 6d and were obtained from Integrated DNA technology.
These peptides were tested for their ability to disrupt the interaction between IN-INI1 and IN-TAR RNA in vitro.

As to “lys-Leu-Met-Thr-Pro-Glu-Met-Phe-S5-Glu-Ile-Leu-S5-Cys-Gly-Leu-Asn [SP83]”, the “inhibition of IN/INI1 complex formation within cells” value against IN/INI1 complex is on record as “not”. In addition, the “inhibition of IN/INI1 complex formation within cells” value on IN/INI1 complex (listed as SP83 (D225G)) is “does not inhibit”. In addition, the “inhibition of HIV-1 propagation/replication” value with HIV-1NL4-3 was “not”. In test [1], the “inhibition of infection of CEM-GFP cells by reactivated virus (green cells)” value is listed as “not” and the “inhibition of virus spread, p24 levels in culture” value is given as “not”. In addition, the “inhibition of IN-INI1 interactions” value at IN-INI1 interaction is on record as “not”.

As to “lys-Leu-Met-Thr-Pro-Glu-Met-Phe-S5-Glu-Ile-Leu-S5-Cys-Asp-Leu-Asn [SP38]”, the “inhibition of IN/INI1 complex formation within cells” value on IN/INI1 complex is reported as “potently inhibits”. Also, the “inhibition of INI1 binding to IN” value on IN/INI1 complex (immunoblot of bound HA-INI1) is listed as approximately 1000 fold. Further, in the test on HIV-1NL4-3, the “inhibition of HIV-1 propagation/replication” value is “Inhibits HIV-1 Replication at Low Micromolar Concentrations; also recorded: potently inhibited”. In addition, in test [1], the “inhibition of infection of CEM-GFP cells by reactivated virus (green cells)” value was “inhibited the infection”; the “inhibition of virus spread, p24 levels in culture” value was “inhibited the virus spread; also recorded: inhibits p24 levels in induced and uninduced conditions”. The “IC50, inhibition of IN-INI1 interactions” value on IN-INI1 interaction is “low nanomolar”.
